Reference: paper PMC9570898, “Comparing Variants of the Cell-Penetrating Peptide sC18 to Design Peptide-Drug Conjugates” (Molecules, 2022)
No end group written: not given here.

Legend:
HeLa cells = assay: Cytotoxicity (resazurin) assay in HeLa cells; conditions: 24 h, 25 µM peptide, resazurin assay
Experimental: For cell viability assay, cells were (15,000 HeLa, 17,000 MCF-7 and 12,000 HFF-1 cells per well) seeded onto a 96-well plate and grown to 80–90% confluency. Cells were incubated with several peptide concentrations in a serum-free growth medium for 24 h under standard growth conditions. For the positive control, cells were treated with 70% EtOH for 7 min. After washing with DPBS, resazurin solution (10% in serum-free media, v/v) was incubated with the cells for 1 h under standard growth conditions. The cell viability was determined relative to untreated cells by measurement of the resorufin product at 595 nm (λex = 550 nm) on a Tecan infinite M200 plate reader (Tecan Group AG, Männedorf, Switzerland).
Figure 2 (A,B): Cytotoxicity profiles of the peptides in HeLa and HEK-293 cells. Cells were cultured and incubated at pH 7.4 for 24 h with different concentrations of peptide solutions. Untreated cells served as negative control; cells treated with 70% ethanol as positive control. Values from the positive control were subtracted from all data, and the untreated cells were set to 100%; assays were performed with n = 3 in triplicate. (C): Flow cytometry analysis of HeLa or HEK-293 cells after incubating 1 and 10 µM peptide solutions for 30 min at 37 °C; assays were conducted in triplicate n = 3. (D): Confocal laser scanning microscopy analysis of 10 µM CF-labeled peptides after 30 min of incubation in HeLa cells. Green: CF-labeled peptides; blue: Hoechst 33342 nuclear stain; scale bar is 10 µm.
Figure 5 (A): Cytotoxicity assay using HFF-1 cells. Different PDC concentrations were incubated with the cells for 24 h at 37 °C and a resazurin assay was conducted. (B): Dose-response curves for peptide drug conjugates were obtained using the resazurin assay. For this, HeLa cells were treated with various conjugate concentrations (2.5–70 µM) for 24 h at 37 °C. (C): Quantification of PDC internalization in HeLa cells; 10 µM PDC solutions were incubated with cells for 30 min at 37 °C and cells were inspected using a flow cytometer; assays were conducted in triplicate n = 3.

HEK293 cells = assay: Cellular uptake by flow cytometry in HEK293 cells; assay type: cell-based, human; conditions: 1 and 10 µM CF-labeled peptide, 30 min, 37 °C, serum-free medium, triplicate n = 3
Experimental: Monolayer cellular uptake was quantified using flow cytometry. Cells were seeded onto a 24-well plate (HeLa: 90,000, HEK293: 100,000 and MCF-7 130,000 cells per well) and grown to 80–90% confluency. Then, cells were incubated with the labeled peptides/conjugates in a serum-free medium at 37 °C for various incubation times, and subsequently washed twice with PBS and detached with indicator-free trypsin resuspended in an indicator-free serum-containing medium. The cell suspension was transferred into a 96-well FACS plate and fluorescence was then measured by a Guava easyCyte flow cytometer (Merck, Darmstadt, Germany).The blue laser was used for all measurements, FSC (1137–1538), SSC (3020–4086), Grn-B (647–875) and Red-B (694–939). Cellular autofluorescence of untreated control cells was subtracted.

[1] = Peptide interaction with anionic giant unilamellar vesicles; conditions: 1 µM CF-labeled peptide, 30 min, room temperature, fluorescence microscopy, Oyster405 dye outflow
Experimental: A thin agarose layer is necessary to build GUVs. Therefore, 1% super low melting agarose was melted in deionized water by heating up in a microwave. Afterward, 200 µL were coated on a clean slide and dried at 50 °C for 30 min on a heating plate; 10 µL of respective lipid solution was added onto the agarose layer and subsequently distributed and dried for 1 h using an exicator under vacuum to get rid of the chloroform. For staining the lipid layer, 0.2 mol % Atto550 was added. Afterward, a sealing ring was added around the pink lipid film. Lipids were hydrated with dextran buffer (10 mM HEPES buffer (pH 7.4), 50 mM KCl, 50 mM NaCl and 1 mg/mL Dextran) containing 3 µL Oyster405 (Luminaris GmbH, Münster, Germany) encapsulating the blue dye. Slides were incubated for 2 h at RT. […] For fluorescence microscopy analysis, lipids were transferred into an eight-well Ibidi® plate; 40 µL of respective GUV solution was mixed with 1 µM peptide solutions and filled up to 100 µL with dextran buffer. […] Afterward, GUVs were analyzed using a BZ-X800E microscope (Keyence, Osaka, Japan) followed by image processing with ImageJ.
Figure 4 Peptide interaction with […] (GUVs) composed of DOPC/DOPE/DOPG (40:30:30); 1 µM solutions of sC18 variants were incubated with GUVs for 30 min and inspected using a fluorescence microscope (Keyence). […]

## RLRKLLRKFLRK-NH2 [sC18*^R,L]
HeLa cells
  cell viability at 25 µM: ~35%
HEK293 cells
  cellular uptake: highly significant and enhanced internalization
[1]
  interaction with anionic GUVs: strongest accumulation leading to membrane disruption events and complete dye outflow from the vesicles
